Like-named read-outs stand apart in the source and are kept apart here.
Assays:
[1] = system: HL4–3 virus; experiment: Anti-HIV-1 activity against HL4–3 virus in MT4 cells; type: cell-based
[2] = Cytotoxicity toward MT4 cells; type: cell-based; settings: human
[3] = system: MT4 cells; experiment: Cytotoxicity toward MT4 cells; type: cell-based; settings: read-out: Cytotoxicity CC50, means, n = 3
[4] = system: HIV; settings: read-out: Anti-HIV IC50 (literature); ref Olivon, et al., 2017; cited from earlier work
[5] = read-out: Anti-HIV-1 IC50, HL4–3 virus in MT4 cells, means, n = 3

Compound	IC50 [1, 5]	CC50 [3]	also measured
Cc1cn([C@H]2C[C@H](N=[N+]=[N-])[C@@H](CO)O2)c(=O)[nH]c1=O [AZT, zidovudine, reference compound]			IC50 ([1]; Human immunodeficiency virus 1, MT4, read-out: Anti-HIV-1 IC50): 18.7 nM; Selectivity index SI ([1]; ratio of CC50 and anti-HIV IC50): > 20; CC50 [2]: > 370 nM
CCCCCCCCCCCCCCCC(=O)O[C@@]12C[C@@H](C)[C@@]3(O)[C@@H](C=C(CO)C[C@]4(O)C(=O)C(C)=C[C@@H]34)[C@@H]1C2(C)C [Compound 7, 12-deoxyphorbol-13-hexadecanoate]	2.3 nM	> 1700 nM	
CCCCCCCCCCCCCC(=O)O[C@@]12C[C@@H](C)[C@@]3(O)[C@@H](C=C(CO)C[C@]4(O)C(=O)C(C)=C[C@@H]34)[C@@H]1C2(C)C [Compound 8, 12-deoxyphorbol-13-myristate]	22 nM	> 1800 nM	
Crotignoid P [Compound 5]	100 nM	> 1600 nM	
Crotignoid O [Compound 4]	4030 nM	> 1800 nM	
CCCCCCCCCCCCCCCC(=O)O[C@@]12C[C@@H](C)[C@]3(O)[C@@H]4C=C(C)C(=O)[C@@]4(O)[C@H](O)C(CO)=C[C@H]3[C@@H]1C2(C)C [12-deoxy-5β-hydroxy-phorbol-13-hexadecanoate]			IC50 [4]: 2 nM
Crotignoid L [Compound 1]	220 nM	> 1800 nM	
CCCCCCCCCCCCCCCC(=O)O[C@@]12C[C@@H](C)[C@@]3(O)[C@H]([C@@H]1C2(C)C)[C@H](O)[C@](O)(CO)[C@@H](O)[C@]1(O)C(=O)C(C)=C[C@H]13 [12-deoxy-5β-6β-7α-trihydroxy-phorbol-13-hexadecanoate]			IC50 [4]: 257 nM
Crotignoid Q [Compound 6]	> 1900 nM	> 1900 nM	Anti-HIV activity (in words) ([1]; HL4–3 virus in MT4 cells): did not show anti-HIV activity
Crotignoid N [Compound 3]	310 nM	> 1600 nM	
Crotignoid M [Compound 2]	38 nM	> 1700 nM	
